Measurements from patent US7700644B2, “Isoflavonoid dimers” (Novogen Research Pty Ltd, priority 2005, dated 2010).

Key:
[1] = test system: breast cancer cell line MDA-MB-468; experiment: In vitro cytotoxicity, MTT proliferation assay, MDA-MB-468; format: cell-based, human; conditions: Homo sapiens; Breast MDA-MB-468
Experimental: (§1) The human pancreatic cancer cell line, HPAC (CRL-2119) was routinely cultured in 1:1 mixture DMEM (Sigma) plus Ham's F12 (Sigma) medium containing HEPES (15 mM), insulin (0.002 mg/ml), transferrin (0.005 mg/ml), hydrocortisone, (40 ng/ml), epidermal growth factor (10 ng/ml). The ovarian cancer cell line CP70 was obtained as a gift from Dr. Gil Mor (Yale University) and cultured in a 1:1 mixture DMEM plus Ham's F12 medium, and SKOV-3 was purchased from ATCC and cultured in McCoy's 5a medium. The breast cancer cell line MDA-MB-468 cultured in Leibovitz's L-15 medium.
(§2) All cultures were supplemented with 10% FCS(CSL, Australia), penicillin (100 U/ml), streptomycin ([…]), L-glutamine (2 mM) and sodium bicarbonate (1.2 g/L), and cultured at 37° C. in a humidified atmosphere of 5% CO2. All remaining cell lines were purchased from ATCC (Maryland, USA) except where noted.
(§3) IC50 values were determined for each cell line. Cells were seeded in 96-well plates at an appropriate cell density as determined from growth kinetics analysis. NFFs were cultured for 5 days and RK-13s for 24 hrs in the absence and presence of the test compounds. Cell proliferation was assessed after the addition of 20 μl of 3-4,5 dimethylthiazol-2,5-diphenyl tetrazolium bromide (MTT, 2.5 mg/ml in PBS, Sigma) for 3-4 hrs at 37° C. according to manufacturer's instructions. IC50 values were calculated from semi-log plots of % of control proliferation on the y-axis against log dose on the x-axis.

[2] = test system: human pancreatic cancer cell line, HPAC (CRL-2119); experiment: In vitro cytotoxicity, MTT proliferation assay, CRL-2119; format: cell-based; conditions: Homo sapiens, HPAC; Pancreatic CRL-2119
Experimental: as §1, §2, §3

[3] = test system: NCI-H460 (Lung); experiment: In vitro cytotoxicity, MTT proliferation assay, NCI-H460; format: cell-based, human; conditions: Homo sapiens
Experimental: as §1, §2, §3

[4] = test system: RK-13 (rabbit kidney) cells; experiment: Normal cell toxicity, MTT proliferation assay, rabbit kidney cells; format: cell-based; conditions: Oryctolagus cuniculus, 24 hrs
Experimental: (§4) Neonatal foreskin fibroblasts (NFF) were a gift from Dr. Peter Parsons (Queensland Institute of Medical Research). RK-13 (rabbit kidney) cells were obtained from Miller Whalley (Macquarie University). Both cell types were cultured in RPMI supplemented with 10% FCS (CSL, Australia), penicillin (100 U/ml), streptomycin ([…]), L-glutamine (2 mM) and sodium bicarbonate (1.2 g/L), and cultured at 37° C. in a humidified atmosphere of 5% CO2.
as §3

[5] = test system: DU145 (Prostate); experiment: In vitro cytotoxicity, MTT proliferation assay, DU145; format: cell-based, human; conditions: Homo sapiens, DU-145
Experimental: as §1, §2, §3

[6] = test system: MCF-7 (Breast); experiment: In vitro cytotoxicity, MTT proliferation assay, MCF-7; format: cell-based, human; conditions: Homo sapiens, MCF7; Breast MCF-7
Experimental: as §1, §2, §3

[7] = test system: MM96L (Melanoma); experiment: In vitro cytotoxicity, MTT proliferation assay, MM96L; format: cell-based, human; conditions: Homo sapiens
Experimental: as §1, §2, §3

[8] = test system: MM200 (Melanoma); experiment: In vitro cytotoxicity, MTT proliferation assay, MM200; format: cell-based, human; conditions: Homo sapiens
Experimental: as §1, §2, §3

[9] = test system: CCRF-CEM (Leukemic); experiment: In vitro cytotoxicity, MTT proliferation assay, CCRF-CEM; format: cell-based; conditions: Homo sapiens
Experimental: as §1, §2
as §3, with “NFFs were cultured for 5 days and RK-13s for 24 hrs in the absence and presence of the test compounds.” left out

[10] = test system: RPMI-8226 (Leukemic); experiment: In vitro cytotoxicity, MTT proliferation assay, RPMI-8226; format: cell-based; conditions: Homo sapiens; Leukemic RPMI-8226
Experimental: as §1, §2
as §3, with “NFFs were cultured for 5 days and RK-13s for 24 hrs in the absence and presence of the test compounds.” left out

[11] = test system: A2780 (Ovarian); experiment: In vitro cytotoxicity, MTT proliferation assay, A2780; format: cell-based, human; conditions: Homo sapiens
Experimental: as §1, §2, §3

[12] = test system: SKOV-3 (Ovarian); experiment: In vitro cytotoxicity, MTT proliferation assay, SKOV-3; format: cell-based, human; conditions: Homo sapiens, SK-OV-3; Ovarian SKOV-3
Experimental: as §1, §2, §3

[13] = test system: LNCaP (Prostate); experiment: In vitro cytotoxicity, MTT proliferation assay, LNCaP; format: cell-based, human; conditions: Homo sapiens
Experimental: as §1, §2, §3

[14] = test system: Neonatal foreskin fibroblasts (NFF); experiment: Normal cell toxicity, MTT proliferation assay, NFF; format: cell-based, human; conditions: Homo sapiens, 120 h; NFF fibroblast, cultured 5 days, MTT
Experimental: as §4, §3
Duplicate cytotoxicity assays against NFF cells were conducted with dehydroequol (DHE), 4,9-dihydroxy-14,15-dimethoxy-12a-(3′,4′-dimethoxyphenyl)-3,10-dimethyl-2,11-dioxa-(1H,12H)-6b,6c,12a,16b-tetrahydronaphtho[1,2-g]chrysene (2) from Example 6.1 and cisplatin.

[15] = test system: HTB-138 (Glioma); experiment: In vitro cytotoxicity, MTT proliferation assay, HTB-138; format: cell-based, human; conditions: Homo sapiens; Glioma HTB-138
Experimental: as §1, §2, §3

[16] = test system: HCT-15 (Colorectal); experiment: In vitro cytotoxicity, MTT proliferation assay, HCT-15; format: cell-based, human; conditions: Homo sapiens; Colorectal HCT-15
Experimental: as §1, §2, §3

[17] = test system: PC3 (Prostate); experiment: In vitro cytotoxicity, MTT proliferation assay, PC3; format: cell-based, human; conditions: Homo sapiens
Experimental: as §1, §2, §3

[18] = test system: ovarian cancer cell line CP70; experiment: In vitro cytotoxicity, MTT proliferation assay, CP70; format: cell-based, human; conditions: Homo sapiens
Experimental: as §1, §2, §3

[19] = Oral pharmacokinetics in mice; format: in vivo, female BALB/c mice; conditions: female, BALB/c, mouse, blood, 50 mg/kg, oral gavage, read-out: Free concentration in blood
Experimental: 4,9-Dihydroxy-14,15-dimethoxy-12a-(3′,4′-dimethoxyphenyl)-3,10-dimethyl-2,11-dioxa-(1H,12H)-6b,6c,12a,16b-tetrahydronaphtho[1,2-g]chrysene (2) from Example 6.1 was prepared as homogenous suspensions in 1% CMC (m:v, water). The Cpd. 2 formulation was delivered orally by gavage to female BALB/c mice at a dosage of 50 mg/kg. Three animals were allocated to each time point (15 min, 30 min, 1 hr, 4 hr and 24 hr). At each respective time point, animals were euthanased by cervical dislocation and blood collected. Free Cpd.

[20] = test system: NCI-H23 (Lung); experiment: In vitro cytotoxicity, MTT proliferation assay, NCI-H23; format: cell-based; conditions: Homo sapiens
Experimental: as §1, §2
as §3, with “NFFs were cultured for 5 days and RK-13s for 24 hrs in the absence and presence of the test compounds.” left out

[21] = test system: HT-29 (Colorectal); experiment: In vitro cytotoxicity, MTT proliferation assay, HT-29; format: cell-based, human; conditions: Homo sapiens; Colorectal HT-29
Experimental: as §1, §2, §3

Oc1ccc(C2=Cc3ccc(O)cc3OC2)cc1 [DHE, 3-(4-hydroxyphenyl)chrom-3-en-7-ol] showed an IC50 [1] of 7.9 ± 3.5 µM, an IC50 [2] of 56.6 ± 16.8 µM and an IC50 [3] of 10.6 ± 3.8 µM. For the same compound, the IC50 [4] was > 150 µM, the IC50 [5] was 5.95 ± 1.5 µM and the IC50 [6] was 21.5 ± 13.2 µM. It also gave an IC50 [7] of 4.7 µM, an IC50 [8] of 4.8 µM and an IC50 [9] of 1.7 ± 0.68 µM. For the same compound, the IC50 [10] was 3.72 ± 0.08 µM, the IC50 [11] was 1.7 ± 0.61 µM and the IC50 [12] was 21.8 ± 4.65 µM. For the same compound, the IC50 [13] was 4.8 ± 3.8 µM, the IC50 [14] was > 150 µM and the IC50 [15] was 7.35 ± 0.89 µM. For the same compound, the IC50 [16] was 24.4 ± 12.6 µM, the IC50 [17] was 9.09 ± 8.12 µM and the IC50 [18] was 1.69 ± 0.62 µM. It also gave a concentration at 15 min ([19]; Time 0.25 (15 min)) of 3300 nM, a concentration at 30 min ([19]; Time 0.5 (30 min)) of 2900 nM and a concentration at 1 h ([19]; Time 1 (1 hr)) of 1500 nM. For the same compound, the concentration at 4 h ([19]; Time 4 (4 hr)) was 1300 nM, the concentration at 24 h ([19]; Time 24 (24 hr)) was 150 nM and the IC50 [20] was 8.75 ± 7.2 µM. It also gave an IC50 [21] of 50.5 ± 21.9 µM.
